Laboratory results from publication PMC7380166, “How to Study the Metabolism of New Psychoactive Substances for the Purpose of Toxicological Screenings—A Follow-Up Study Comparing Pooled Human Liver S9, HepaRG Cells, and Zebrafish Larvae” (Frontiers in Chemistry, 2020).

Columns and labels:
[1] = system: zebrafish larvae; test: In vivo maximum-tolerated concentration (MTC) study in zebrafish larvae; design: species or system zebrafish (Danio rerio); settings: for Survival rate: 24-h treatment, fifteen larvae
Method: Internal protocols based on published standard methods (Westerfield, [2007]) were used to perform zebrafish husbandry and the maximum-tolerated concentration (MTC) testing was based on a previous study (Richter et al., [2019a]). Danieau's medium [17 mM NaCl, 2 mM KCl, 0.12 mM MgSO4, 1.8 mM Ca(NO3)2, 1.5 mM HEPES, pH 7.1–7.3, and 1.2 μM methylene blue] at 28°C was used to raise zebrafish larvae of the AB wild-type strain. For MTC testing, 96-well plates were used with 100 μl of medium and one larva per well. Drug exposition was started 4 dpf using 0, 0.01, 0.1, 1, 10, 50, or 100 μM final concentrations of 3,4-DMA-NBOMe, ephylone, 4F-MDMB-BINACA, 4F-PHP, or 1P-LSD, respectively. The drug exposure in the incubator at 28°C lasted 24 h. The final DMSO concentration was 1% (v/v) for all experiments. Monitoring of the larvae was done using a LEICA M205 FA stereo microscope (Leica Mikrosysteme Vertrieb GmbH, Wetzlar, Germany) to detect developmental defects and/or decreased survival rates. Fifteen larvae were used for each experiment.

[2] = pHLM without co-substrates of phase II reactions; ref Haschimi et al., [2019]; cited from earlier work
[3] = [2019], cited from earlier work
[4] = molecular target: T1, hCES2 (Homo sapiens, UniProt O00748); test: Esterases activity screening, hCES2; assay type: in vitro ADME; design: key: +, detected; –, not detected; settings: 100 μM 4F-MDMB-BINACA, 0.2 mg protein/ml, duplicate
T1 construct: purchased Corning
T1 sequence (O00748 27-559): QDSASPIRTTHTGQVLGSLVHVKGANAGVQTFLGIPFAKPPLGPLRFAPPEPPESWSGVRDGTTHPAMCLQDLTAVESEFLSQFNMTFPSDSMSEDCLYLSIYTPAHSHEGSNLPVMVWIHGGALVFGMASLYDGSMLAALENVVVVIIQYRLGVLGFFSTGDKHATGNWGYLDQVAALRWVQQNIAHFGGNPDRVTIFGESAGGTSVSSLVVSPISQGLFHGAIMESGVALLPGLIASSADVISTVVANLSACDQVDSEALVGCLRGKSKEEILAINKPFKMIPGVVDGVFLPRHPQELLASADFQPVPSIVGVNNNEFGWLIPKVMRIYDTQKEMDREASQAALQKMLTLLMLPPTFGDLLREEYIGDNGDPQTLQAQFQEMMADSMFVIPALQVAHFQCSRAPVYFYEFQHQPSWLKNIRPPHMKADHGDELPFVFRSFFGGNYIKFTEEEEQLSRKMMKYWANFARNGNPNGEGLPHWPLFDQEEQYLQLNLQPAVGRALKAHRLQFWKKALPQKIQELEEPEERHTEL
Method: (§1) Experiments were performed in accordance with a previous study (Meyer et al., [2015]) with minor modifications. The final volume per reaction tube was 100 μl with a final 4F-MDMB-BINACA concentration of 100 μM and enzyme concentration of 0.2 mg protein/ml for hCES1b, hCES1c, and hCES2. Incubations with pHLM and pHLS9 (0.2 mg protein/ml, each) were performed in a similar manner. Additionally, incubations with human plasma (50 μl pooled human plasma, 40 μl phosphate buffer, and 10 μl substrate) were performed. The reactions were started by adding the enzyme-containing preparation and terminated with an equal volume of ice-cold acetonitrile containing diazepam-d5 (100 μM) as an internal standard. Only plasma incubations were terminated by addition of a three-fold volume of ice-cold acetonitrile. The reaction mixtures were centrifuged at 18,407 × g for 15 min, and then supernatants were transferred to autosampler vials, and 5 μl was injected onto the LC-HRMS/MS system. Negative control incubations without enzyme were prepared to identify non-metabolically formed compounds. All incubations were done in duplicate.

[5] = molecular target: T2, hCES1b (Homo sapiens, UniProt P23141); test: Esterases activity screening, hCES1b; assay type: in vitro ADME; design: key: +, detected; –, not detected; settings: 100 μM 4F-MDMB-BINACA, 0.2 mg protein/ml, duplicate
T2 construct: purchased Corning
T2 sequence (P23141 18-567): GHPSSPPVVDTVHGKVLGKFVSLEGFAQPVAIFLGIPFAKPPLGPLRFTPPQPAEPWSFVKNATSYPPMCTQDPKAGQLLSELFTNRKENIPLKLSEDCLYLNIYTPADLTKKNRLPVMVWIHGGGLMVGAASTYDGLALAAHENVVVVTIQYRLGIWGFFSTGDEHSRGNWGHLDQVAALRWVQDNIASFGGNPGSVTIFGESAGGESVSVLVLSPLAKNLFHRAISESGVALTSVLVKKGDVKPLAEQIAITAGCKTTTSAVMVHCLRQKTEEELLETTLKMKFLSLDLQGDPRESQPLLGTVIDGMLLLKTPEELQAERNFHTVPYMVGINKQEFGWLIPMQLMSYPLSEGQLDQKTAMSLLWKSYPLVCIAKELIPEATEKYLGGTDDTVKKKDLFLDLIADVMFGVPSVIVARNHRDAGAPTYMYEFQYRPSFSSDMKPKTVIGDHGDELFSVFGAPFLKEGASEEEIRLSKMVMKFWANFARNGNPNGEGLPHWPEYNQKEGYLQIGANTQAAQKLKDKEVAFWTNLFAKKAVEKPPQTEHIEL
Method: as §1

[6] = molecular target: T2, hCES1b; test: Esterases activity screening, hCES1b; assay type: in vitro ADME; design: key: +, detected; –: −, not detected; settings: 100 μM 4F-MDMB-BINACA, 0.2 mg protein/ml, duplicate
Method: as §1

Compound	Survival rate ([1]; 0.01 μM, larvae 4 dpf) [%]	Survival rate ([1]; 0.1 μM, larvae 4 dpf) [%]	Survival rate ([1]; 1 μM, larvae 4 dpf) [%]	Survival rate ([1]; 10 μM, larvae 4 dpf) [%]	Survival rate ([1]; 50 μM, larvae 4 dpf) [%]	Survival rate ([1]; 100 μM, larvae 4 dpf) [%]	Concentration considered non-toxic for zebrafish larvae (4 dpf) ([1]; 24 h exposure via medium) [µM]	Malformations ([1]; up to 100 μM, larvae 4 dpf, 24 h)	Number of phase I metabolites identified in pHLM incubations [2]	Number of metabolites identified in human urine samples ([3]; 17 human urine samples, conjugate cleavage, ref Haschimi et al.)	Number of metabolites identified in blood and urine samples ([3]; four blood and four urine samples, ref Krotulski et al.)	Detection of metabolite in incubation with hCES2 [4]	Detection of metabolite in incubation with hCES1b [5]	Detection of metabolite in incubation with hCES1b [6]
COC(=O)C(NC(=O)c1nn(CCCCF)c2ccccc12)C(C)(C)C (stereo not drawn) [4F-MDMB-BINACA, methyl 2-[1-(4-fluorobutyl)-1H-indazole-3-carbonyl]amino-3,3-dimethylbutanoate]	100	100	100	100	73	53	25	No malformations	11	13	nine			
O=C(O)c1nn(CCCCF)c2ccccc12 [MB1]												–	–	
CC(C)(C)C(NC(=O)c1nn(CCCCF)c2ccccc12)C(=O)O (stereo not drawn) [MB8]												–		+
